Measurements taken from ChEMBL document CHEMBL3124747, “Formosusin A, a novel specific inhibitor of mammalian DNA polymerase β from the fungus Paecilomyces formosus” (Bioorg Med Chem, 2014).
pIC50, pKi: −log10 of the molar value.

Experiments:
[1] = Inhibition of calf DNA primase of polymerase alpha assessed as inhibition of incorporation of dTTP into poly(dA)/oligo(dT)18 after 60 mins; set-up: species or system Bos taurus
[2] = target: T1, DNA polymerase eta (Homo sapiens, UniProt Q9Y253); test: Inhibition of C-terminal His-6-tagged human DNA polymerase eta expressed in Escherichia coli assessed as inhibition of incorporation of dTTP into poly(dA)/oligo(dT)18 after 60 mins
T1 sequence (Q9Y253 whole entry): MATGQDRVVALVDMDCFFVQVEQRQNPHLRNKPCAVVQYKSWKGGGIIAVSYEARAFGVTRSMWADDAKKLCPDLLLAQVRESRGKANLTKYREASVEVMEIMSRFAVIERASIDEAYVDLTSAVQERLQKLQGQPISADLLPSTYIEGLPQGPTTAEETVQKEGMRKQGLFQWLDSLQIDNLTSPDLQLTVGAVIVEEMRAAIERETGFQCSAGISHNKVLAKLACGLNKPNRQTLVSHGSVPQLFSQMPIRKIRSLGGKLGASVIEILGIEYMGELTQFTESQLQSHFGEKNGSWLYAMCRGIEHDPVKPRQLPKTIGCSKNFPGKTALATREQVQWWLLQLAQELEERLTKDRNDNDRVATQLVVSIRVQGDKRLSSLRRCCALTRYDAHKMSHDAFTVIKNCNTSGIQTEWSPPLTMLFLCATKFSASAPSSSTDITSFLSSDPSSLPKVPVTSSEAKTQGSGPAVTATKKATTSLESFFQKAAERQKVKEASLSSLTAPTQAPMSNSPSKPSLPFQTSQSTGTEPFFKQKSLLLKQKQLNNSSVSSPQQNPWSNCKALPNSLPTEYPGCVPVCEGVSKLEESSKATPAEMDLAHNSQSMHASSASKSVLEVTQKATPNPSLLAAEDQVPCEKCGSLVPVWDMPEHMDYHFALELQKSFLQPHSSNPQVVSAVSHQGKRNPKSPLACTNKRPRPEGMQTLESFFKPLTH

[3] = target: DNA polymerase beta (Rattus norvegicus) (UniProt P06766); test: Inhibition of recombinant rat DNA polymerase beta expressed in Escherichia coli JMpbeta5 assessed as inhibition of incorporation of dTTP into poly(dA)/oligo(dT)18 after 60 mins
[4] = target: T2, DNA polymerase beta (Rattus norvegicus, UniProt P06766); test: Noncompetitive inhibition of recombinant rat DNA polymerase beta using dTTP as substrate by Lineweaver-Burk plot analysis
[5] = target: T2, DNA polymerase beta; test: Competitive inhibition of recombinant rat DNA polymerase beta using poly(dA)/oligo(dT)18 as substrate by Lineweaver-Burk plot analysis

With `CCCCC(=O)/C=C(C)/C=C/CCC(=O)N1CCCC1=O` as the compound, how does the pIC50 [1] read?
The pIC50 was less than 3.70.

And the pIC50 [2]?
The pIC50 was less than 3.70.

With `CCCC[C@@H](O)/C=C(C)/C=C/C=C/C(=O)N1CCCC1=O` [PECILOCIN] as the compound, how does the pIC50 [1] read?
Its pIC50 is less than 3.70.

What about the pIC50 [2] of the same compound?
The pIC50 was less than 3.70.

Which inhibition [3] does the source give for `CCCC[C@@H](O)/C=C(C)/C=C/C=C\C(=O)N1CCCC1=O` here?
Its inhibition is “Dose-dependent effect”.

And the pKi [4]?
Its pKi is 4.94.

And the pIC50 [1]?
The pIC50 was less than 3.70.

And the pIC50 [2]?
Its pIC50 is less than 3.70.

What about the pKi [5] of the same compound?
The pKi was 5.26.

With `CC(/C=C/CCC(=O)N1CCCC1=O)=C\C1CCCCO1` (stereo unspecified) as the compound, how does the pIC50 [1] read?
Its pIC50 is less than 3.70.

What about the pIC50 [2] of the same compound?
Its pIC50 is less than 3.70.
